Reference: ChEMBL document CHEMBL4393697, “Lipophilic efficient phenylthiazoles with potent undecaprenyl pyrophosphatase inhibitory activity” (Eur J Med Chem, 2019)
≈ marks a conversion by molar mass, not a printed value.

Assays:
Escherichia coli [1] = assay: Bactericidal activity against Escherichia coli JW55031 harboring deltatolC mutant assessed as reduction in bacterial cell growth incubated for 18 to 20 hrs followed by re-plating on tryptic soy agar plates at 37 degC for 18 hrs by broth microdilution assay; type: functional
Pseudomonas aeruginosa [2] = assay: Bactericidal activity against Pseudomonas aeruginosa ATCC 15442 assessed as reduction in bacterial cell growth incubated for 18 to 20 hrs followed by re-plating on tryptic soy agar plates at 37 degC for 18 hrs by broth microdilution assay; type: functional
Escherichia coli [3] = assay: Antibacterial activity against Escherichia coli JW55031 harboring deltatolC mutant assessed as reduction in bacterial cell growth incubated for 18 to 20 hrs by broth microdilution method; type: functional
Klebsiella pneumoniae [4] = assay: Bactericidal activity against Klebsiella pneumoniae BAA-1706 assessed as reduction in bacterial cell growth incubated for 18 to 20 hrs followed by re-plating on tryptic soy agar plates at 37 degC for 18 hrs by broth microdilution assay; type: functional
Klebsiella pneumoniae [5] = assay: Antibacterial activity against Klebsiella pneumoniae BAA-1706 assessed as reduction in bacterial cell growth incubated for 18 to 20 hrs by broth microdilution method; type: functional
Pseudomonas aeruginosa [6] = assay: Antibacterial activity against Pseudomonas aeruginosa ATCC 15442 assessed as reduction in bacterial cell growth incubated for 18 to 20 hrs by broth microdilution method; type: functional
Acinetobacter baumannii [7] = assay: Antibacterial activity against Acinetobacter baumannii ATCC 19606 assessed as reduction in bacterial cell growth incubated for 18 to 20 hrs by broth microdilution method; type: functional
Escherichia coli [8] = assay: BActericidal activity against Escherichia coli BW25113 assessed as reduction in bacterial cell growth incubated for 18 to 20 hrs followed by re-plating on tryptic soy agar plates at 37 degC for 18 hrs by broth microdilution assay; type: functional
Escherichia coli [9] = assay: Antibacterial activity against Escherichia coli BW25113 assessed as reduction in bacterial cell growth incubated for 18 to 20 hrs by broth microdilution method; type: functional
Acinetobacter baumannii [10] = assay: Bactericidal activity against Acinetobacter baumannii ATCC 19606 assessed as reduction in bacterial cell growth incubated for 18 to 20 hrs followed by re-plating on tryptic soy agar plates at 37 degC for 18 hrs by broth microdilution assay; type: functional
Listeria monocytogenes [11] = assay: Antibacterial activity against Listeria monocytogenes ATCC 19111 assessed as reduction in bacterial cell growth incubated for 18 to 20 hrs by broth microdilution method; type: functional
Staphylococcus aureus [12] = assay: Bactericidal activity against vancomycin resistant Staphylococcus aureus VRS10 assessed as reduction in bacterial cell growth incubated for 18 to 20 hrs followed by re-plating on tryptic soy agar plates at 37 degC for 18 hrs by broth microdilution assay; type: functional
Listeria monocytogenes [13] = assay: Bactericidal activity against Listeria monocytogenes ATCC 19111 assessed as reduction in bacterial cell growth incubated for 18 to 20 hrs followed by re-plating on tryptic soy agar plates at 37 degC for 18 hrs by broth microdilution assay; type: functional
Enterococcus faecium [14] = assay: Bactericidal activity against vancomycin resistant Enterococcus faecium ATCC 700221 assessed as reduction in bacterial cell growth incubated for 18 to 20 hrs followed by re-plating on tryptic soy agar plates at 37 degC for 18 hrs by broth microdilution assay; type: functional
Staphylococcus aureus [15] = assay: Bactericidal activity against Staphylococcus aureus ATCC 6538 assessed as reduction in bacterial cell growth incubated for 18 to 20 hrs followed by re-plating on tryptic soy agar plates at 37 degC for 18 hrs by broth microdilution assay; type: functional
Staphylococcus aureus [16] = assay: Antibacterial activity against Staphylococcus aureus NRS107 assessed as reduction in bacterial cell growth incubated for 18 to 20 hrs by broth microdilution method; type: functional
Enterococcus faecalis [17] = assay: Antibacterial activity against vancomycin resistant Enterococcus faecalis ATCC 51299 assessed as reduction in bacterial cell growth incubated for 18 to 20 hrs by broth microdilution method; type: functional
Staphylococcus aureus [18] = assay: Antibacterial activity against methicillin resistant Staphylococcus aureus USA400 assessed as reduction in bacterial cell growth incubated for 18 to 20 hrs by broth microdilution method; type: functional
Staphylococcus aureus [19] = assay: Antibacterial activity against methicillin-resistant Staphylococcus aureus USA300 assessed as reduction in bacterial cell growth incubated for 18 to 20 hrs by broth microdilution method; type: functional
J774 = assay: Cytotoxicity against mouse J774 assessed as reduction in cell viability at 16 ug/ml incubated for 24 hrs by MTS assay; type: cell-based; details: j774, 24 h
Staphylococcus aureus [20] = assay: Bactericidal activity against Staphylococcus aureus NRS107 assessed as reduction in bacterial cell growth incubated for 18 to 20 hrs followed by re-plating on tryptic soy agar plates at 37 degC for 18 hrs by broth microdilution assay; type: functional
Staphylococcus aureus [21] = assay: Antibacterial activity against vancomycin resistant Staphylococcus aureus VRS12 assessed as reduction in bacterial cell growth incubated for 18 to 20 hrs by broth microdilution method; type: functional
[22] = system: Staphylococcus epidermidis; assay: Bactericidal activity against methicillin resistant Staphylococcus epidermidis NRS101 assessed as reduction in bacterial cell growth incubated for 18 to 20 hrs followed by re-plating on tryptic soy agar plates at 37 degC for 18 hrs by broth microdilution assay; type: functional
[23] = Solubility of compound in PBS after 2 hrs by turbidity based absorbance analysis; type: physicochemical
Streptococcus pneumoniae [24] = assay: Antibacterial activity against Methicillin resistant Streptococcus pneumoniae ATCC 700677 assessed as reduction in bacterial cell growth incubated for 18 to 20 hrs by broth microdilution method; type: functional
Staphylococcus aureus [25] = assay: Antibacterial activity against vancomycin resistant Staphylococcus aureus VRS10 assessed as reduction in bacterial cell growth incubated for 18 to 20 hrs by broth microdilution method; type: functional
Enterococcus faecium [26] = assay: Antibacterial activity against vancomycin resistant Enterococcus faecium ATCC 700221 assessed as reduction in bacterial cell growth incubated for 18 to 20 hrs by broth microdilution method; type: functional
Streptococcus pneumoniae [27] = assay: Antibacterial activity against Cephalosporin resistant Streptococcus pneumoniae ATCC 51916 assessed as reduction in bacterial cell growth incubated for 18 to 20 hrs by broth microdilution method; type: functional
Enterococcus faecalis [28] = assay: Bactericidal activity against vancomycin resistant Enterococcus faecalis ATCC 51299 assessed as reduction in bacterial cell growth incubated for 18 to 20 hrs followed by re-plating on tryptic soy agar plates at 37 degC for 18 hrs by broth microdilution assay; type: functional
[29] = system: Staphylococcus epidermidis; assay: Antibacterial activity against methicillin resistant Staphylococcus epidermidis NRS101 assessed as reduction in bacterial cell growth incubated for 18 to 20 hrs by broth microdilution method; type: functional
Streptococcus pneumoniae [30] = assay: Bactericidal activity against Cephalosporin resistant Streptococcus pneumoniae ATCC 51916 assessed as reduction in bacterial cell growth incubated for 18 to 20 hrs followed by re-plating on tryptic soy agar plates at 37 degC for 18 hrs by broth microdilution assay; type: functional
Streptococcus pneumoniae [31] = assay: Bactericidal activity against Methicillin resistant Streptococcus pneumoniae ATCC 700677 assessed as reduction in bacterial cell growth incubated for 18 to 20 hrs followed by re-plating on tryptic soy agar plates at 37 degC for 18 hrs by broth microdilution assay; type: functional
Staphylococcus aureus [32] = assay: Bactericidal activity against vancomycin resistant Staphylococcus aureus VRS12 assessed as reduction in bacterial cell growth incubated for 18 to 20 hrs followed by re-plating on tryptic soy agar plates at 37 degC for 18 hrs by broth microdilution assay; type: functional
Staphylococcus aureus [33] = assay: Antibacterial activity against vancomycin resistant Staphylococcus aureus VRS11a assessed as reduction in bacterial cell growth incubated for 18 to 20 hrs by broth microdilution method; type: functional
Staphylococcus aureus [34] = assay: Antibacterial activity against Staphylococcus aureus ATCC 6538 assessed as reduction in bacterial cell growth incubated for 18 to 20 hrs by broth microdilution method; type: functional
Staphylococcus aureus [35] = assay: Bactericidal activity against methicillin-resistant Staphylococcus aureus USA300 assessed as reduction in bacterial cell growth incubated for 18 to 20 hrs followed by re-plating on tryptic soy agar plates at 37 degC for 18 hrs by broth microdilution assay; type: functional
Staphylococcus aureus [36] = assay: Antibacterial activity against methicillin resistant Staphylococcus aureus NRS119 assessed as reduction in bacterial cell growth incubated for 18 to 20 hrs by broth microdilution method; type: functional
Staphylococcus aureus [37] = assay: Bactericidal activity against methicillin resistant Staphylococcus aureus NRS119 assessed as reduction in bacterial cell growth incubated for 18 to 20 hrs followed by re-plating on tryptic soy agar plates at 37 degC for 18 hrs by broth microdilution assay; type: functional
Staphylococcus aureus [38] = assay: Bactericidal activity against vancomycin resistant Staphylococcus aureus VRS11a assessed as reduction in bacterial cell growth incubated for 18 to 20 hrs followed by re-plating on tryptic soy agar plates at 37 degC for 18 hrs by broth microdilution assay; type: functional

SMILES	MBC (Escherichia coli [1])	MBC (Pseudomonas aeruginosa [2])	MIC (Escherichia coli [3])	MBC (Klebsiella pneumoniae [4])	MIC (Klebsiella pneumoniae [5])	MIC (Pseudomonas aeruginosa [6])	MIC (Acinetobacter baumannii [7])	MBC (Escherichia coli [8])	MIC (Escherichia coli [9])	MBC (Acinetobacter baumannii [10])	MIC (Listeria monocytogenes [11])	MBC (Staphylococcus aureus [12])	MBC (Listeria monocytogenes [13])	MBC (Enterococcus faecium [14])	MBC (Staphylococcus aureus [15])	MIC (Staphylococcus aureus [16])	MIC (Staphylococcus aureus [18])	MBC (Staphylococcus aureus [20])	MIC (Staphylococcus aureus [21])	MBC [22]	further results
CC[C@H]1OC(=O)[C@H](C)[C@@H](O[C@H]2C[C@@](C)(OC)[C@@H](O)[C@H](C)O2)[C@H](C)[C@@H](O[C@@H]2O[C@H](C)C[C@H](N(C)C)[C@H]2O)[C@](C)(O)C[C@@H](C)C(=O)[C@H](C)[C@@H](O)[C@]1(C)O [ERYTHROMYCIN]	2 µg/mL (≈ 2.73 µM)	> 64 µg/mL	1 µg/mL (≈ 1.36 µM)	> 64 µg/mL	64 µg/mL (≈ 87.2 µM)	> 64 µg/mL	8 µg/mL (≈ 10.9 µM)	> 64 µg/mL	32 µg/mL (≈ 43.6 µM)	16 µg/mL (≈ 21.8 µM)											
C/C(=N\NC(=N)N)c1sc(-c2ccc(C#Cc3cccs3)cc2)nc1C	> 64 µg/mL	> 64 µg/mL	64 µg/mL (≈ 169 µM)	> 64 µg/mL	> 64 µg/mL	> 64 µg/mL	> 64 µg/mL	> 64 µg/mL	> 64 µg/mL	> 64 µg/mL	8 µg/mL (≈ 21.1 µM)	16 µg/mL (≈ 42.2 µM)	32 µg/mL (≈ 84.3 µM)	8 µg/mL (≈ 21.1 µM)	2 µg/mL (≈ 5.27 µM)	2 µg/mL (≈ 5.27 µM)	2 µg/mL (≈ 5.27 µM)	4 µg/mL (≈ 10.5 µM)	8 µg/mL (≈ 21.1 µM)	1 µg/mL (≈ 2.63 µM)	MIC (Enterococcus faecalis [17]): 64 µg/mL (≈ 169 µM); MIC (Staphylococcus aureus [19]): 4 µg/mL (≈ 10.5 µM); Activity (J774): Toxic; solubility kinetic at 2 h [23]: 50 µM (≈ 19 µg/mL); MIC (Streptococcus pneumoniae [24]): 4 µg/mL (≈ 10.5 µM); MIC (Staphylococcus aureus [25]): 8 µg/mL (≈ 21.1 µM); MIC (Enterococcus faecium [26]): 4 µg/mL (≈ 10.5 µM); MIC (Streptococcus pneumoniae [27]): 4 µg/mL (≈ 10.5 µM); MBC (Enterococcus faecalis [28]): > 64 µg/mL; MIC [29]: 1 µg/mL (≈ 2.63 µM); MBC (Streptococcus pneumoniae [30]): 4 µg/mL (≈ 10.5 µM); MBC (Streptococcus pneumoniae [31]): 8 µg/mL (≈ 21.1 µM); MBC (Staphylococcus aureus [32]): 16 µg/mL (≈ 42.2 µM); MIC (Staphylococcus aureus [33]): 1 µg/mL (≈ 2.63 µM); MIC (Staphylococcus aureus [34]): 1 µg/mL (≈ 2.63 µM); MBC (Staphylococcus aureus [35]): 8 µg/mL (≈ 21.1 µM); MIC (Staphylococcus aureus [36]): 2 µg/mL (≈ 5.27 µM); MBC (Staphylococcus aureus [37]): 4 µg/mL (≈ 10.5 µM); MBC (Staphylococcus aureus [38]): 2 µg/mL (≈ 5.27 µM)
CC(=O)NC[C@H]1CN(c2ccc(N3CCOCC3)c(F)c2)C(=O)O1 [LINEZOLID]											≤ 0.5 µg/mL	16 µg/mL (≈ 47.4 µM)	32 µg/mL (≈ 94.9 µM)	8 µg/mL (≈ 23.7 µM)	16 µg/mL (≈ 47.4 µM)	1 µg/mL (≈ 2.96 µM)	1 µg/mL (≈ 2.96 µM)	16 µg/mL (≈ 47.4 µM)	1 µg/mL (≈ 2.96 µM)	16 µg/mL (≈ 47.4 µM)	MIC (Staphylococcus aureus [25]): 1 µg/mL (≈ 2.96 µM); MIC (Enterococcus faecium [26]): ≤ 0.5 µg/mL; MBC (Enterococcus faecalis [28]): 32 µg/mL (≈ 94.9 µM); MIC [29]: ≤ 0.5 µg/mL; MBC (Streptococcus pneumoniae [30]): 16 µg/mL (≈ 47.4 µM); MBC (Streptococcus pneumoniae [31]): 32 µg/mL (≈ 94.9 µM); MBC (Staphylococcus aureus [32]): 16 µg/mL (≈ 47.4 µM); MIC (Staphylococcus aureus [33]): 1 µg/mL (≈ 2.96 µM); MIC (Staphylococcus aureus [34]): 1 µg/mL (≈ 2.96 µM); MBC (Staphylococcus aureus [35]): 32 µg/mL (≈ 94.9 µM); MIC (Staphylococcus aureus [36]): 32 µg/mL (≈ 94.9 µM); MBC (Staphylococcus aureus [37]): > 64 µg/mL; MBC (Staphylococcus aureus [38]): 16 µg/mL (≈ 47.4 µM)
